Source: article PMC5859971 (Genes & Development, 2018)
Values joined by “and” are separate entries in the source; they are usually repeats but may differ in a detail not shown here. Equal entries are not always repeated. Where two headings read alike, the source gives them in different places.

Key:
[1] = system: HCT116-PHF5A^R38C; test: CellTiter-Glo viability assay, HCT116-PHF5A^R38C; format: cell-based, human; conditions: for GI50: Homo sapiens, 72 h, read-out: HCT116-PHF5A^R38C GI50
Description: (§1) To further validate the pose of the compound, we analyzed the activity of several related chemical probes using the SPA with the purified protein complex ([Teng et al. 2017]). The SPA is formatted as a competition assay in which the purified protein complex is captured on a bead containing scintillant, incubated with test compounds over a dose response, and then competed off with a fixed concentration of ^3H-Plad compound. IC50 curves are then measured from the resulting light emitted from the bead (Table 1; Supplemental Fig. S4). In addition, we tested the probes in viability assays in two engineered cell lines: HCT116-PHF5A^WT and the sensitization line HCT116-PHF5A^R38C (Table 1; Supplemental Fig. S5). This facilitates profiling of chemical probe activity in the PHF5A background (wild type and mutant). The relative expression levels were further confirmed by Western blot analysis (Supplemental Fig. S5).
(§2) Parental HCT116 cells were obtained from American Type Culture Collection and cultured in RPMI 1640 medium supplemented with 10% fetal bovine serum. PHF5A R38C was generated using the Agilent QuikChange II kit and was cloned into pLenti6.3/V5 as described ([Teng et al. 2017]). The verified clone was used for lentivirus production using X293T cells. Parental HCT116 cells were infected with virus and selected with blasticidin S at 10 µg mL^−1 for 1 wk. Engineered cell lines were subsequently maintained in the absence of antibiotic. Transgene expression was confirmed by Western blot analysis (Supplemental Fig. S4). For Western blot analysis, α-PHF5A rabbit polyclonal antibody (Protein Tech, 15554-1-AP) was used at 1:1000 dilution in LI-COR buffer, and anti-rabbit secondary antibody (LI-COR) was used at 1:5000 dilution. The Western blot was imaged using an Odyssey V3.0 imager (LI-COR). For CellTiter-Glo analysis of the wild-type and PHF5A^R38C cell lines, 500 cells were seeded in each well of a 384-well plate 1 d before compound addition. Dose response was measured in 11-point serial dilutions with a top dose of 10 µM. The percentage of DMSO was controlled throughout, and a DMSO-only control was included. Seventy-two hours after dosing, CellTiter-Glo reagent was added, incubated, and assayed on an EnVision multilabel reader (PerkinElmer). Luminescence values from each treatment were normalized to the average value of the respective DMSO control. The dose response curve plots were generated in GraphPad Prism, and GI50 values were calculated from nonlinear regression analysis. GI50 values for the wild-type and R38C mutant cell lines were plotted in Spotfire.

[2] = biological target: T1, wild-type mini-SF3b complex (4-protein SF3b complex) (Homo sapiens, UniProt O75533+Q7RTV0); test: Scintillation proximity assay (SPA) competition with 3H-labeled pladienolide probe; format: binding; conditions: for activity after truncating the diene tail: assays of Table 1
T1 construct: SF3B1 was limited to the HEAT repeat domain from residues 454–1304 and cloned in-frame with an N-terminal Flag tag; Truncated SF3B1 and full-length SF3B3, PHF5A, and SF3B5 were synthesized; made in house; host or cells: SF21 insect cells (baculovirus, pFastBac1)
T1 sequence (Q7RTV0 whole entry, the tested form may be a part): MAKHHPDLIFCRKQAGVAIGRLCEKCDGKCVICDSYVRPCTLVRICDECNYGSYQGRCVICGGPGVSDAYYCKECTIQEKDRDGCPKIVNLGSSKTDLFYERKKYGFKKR
T1 sequence (Q15393 whole entry, further chain, the tested form may be a part): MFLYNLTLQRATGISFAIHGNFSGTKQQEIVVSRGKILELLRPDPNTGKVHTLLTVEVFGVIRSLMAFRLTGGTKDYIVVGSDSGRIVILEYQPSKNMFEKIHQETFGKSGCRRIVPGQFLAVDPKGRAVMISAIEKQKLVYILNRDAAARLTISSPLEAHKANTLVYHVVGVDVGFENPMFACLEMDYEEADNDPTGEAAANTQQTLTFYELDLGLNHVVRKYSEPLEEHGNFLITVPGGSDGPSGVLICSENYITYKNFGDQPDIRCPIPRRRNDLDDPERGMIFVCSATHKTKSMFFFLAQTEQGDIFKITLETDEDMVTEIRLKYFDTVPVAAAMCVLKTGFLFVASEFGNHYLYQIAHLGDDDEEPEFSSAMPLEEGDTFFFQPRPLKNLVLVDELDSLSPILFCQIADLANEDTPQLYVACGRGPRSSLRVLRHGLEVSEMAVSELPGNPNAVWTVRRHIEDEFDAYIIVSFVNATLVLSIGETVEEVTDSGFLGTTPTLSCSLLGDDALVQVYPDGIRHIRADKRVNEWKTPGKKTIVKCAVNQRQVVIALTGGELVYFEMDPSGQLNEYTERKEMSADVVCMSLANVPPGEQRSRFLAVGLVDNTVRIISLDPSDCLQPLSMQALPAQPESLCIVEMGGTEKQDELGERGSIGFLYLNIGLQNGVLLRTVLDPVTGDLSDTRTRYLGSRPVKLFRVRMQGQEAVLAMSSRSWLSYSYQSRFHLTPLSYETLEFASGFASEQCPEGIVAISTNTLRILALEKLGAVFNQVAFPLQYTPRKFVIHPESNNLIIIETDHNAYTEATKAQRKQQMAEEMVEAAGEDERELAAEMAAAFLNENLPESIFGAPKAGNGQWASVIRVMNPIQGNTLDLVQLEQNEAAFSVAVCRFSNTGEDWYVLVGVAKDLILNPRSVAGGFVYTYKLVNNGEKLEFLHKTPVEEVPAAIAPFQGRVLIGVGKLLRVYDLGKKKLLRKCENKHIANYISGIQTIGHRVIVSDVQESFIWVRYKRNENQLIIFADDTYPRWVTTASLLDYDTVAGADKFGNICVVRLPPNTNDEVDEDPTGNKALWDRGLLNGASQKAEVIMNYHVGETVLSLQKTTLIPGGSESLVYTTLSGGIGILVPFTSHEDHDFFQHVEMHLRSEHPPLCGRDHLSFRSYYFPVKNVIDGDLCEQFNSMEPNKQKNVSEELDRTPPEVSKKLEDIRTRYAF
T1 sequence (O75533 454-1304): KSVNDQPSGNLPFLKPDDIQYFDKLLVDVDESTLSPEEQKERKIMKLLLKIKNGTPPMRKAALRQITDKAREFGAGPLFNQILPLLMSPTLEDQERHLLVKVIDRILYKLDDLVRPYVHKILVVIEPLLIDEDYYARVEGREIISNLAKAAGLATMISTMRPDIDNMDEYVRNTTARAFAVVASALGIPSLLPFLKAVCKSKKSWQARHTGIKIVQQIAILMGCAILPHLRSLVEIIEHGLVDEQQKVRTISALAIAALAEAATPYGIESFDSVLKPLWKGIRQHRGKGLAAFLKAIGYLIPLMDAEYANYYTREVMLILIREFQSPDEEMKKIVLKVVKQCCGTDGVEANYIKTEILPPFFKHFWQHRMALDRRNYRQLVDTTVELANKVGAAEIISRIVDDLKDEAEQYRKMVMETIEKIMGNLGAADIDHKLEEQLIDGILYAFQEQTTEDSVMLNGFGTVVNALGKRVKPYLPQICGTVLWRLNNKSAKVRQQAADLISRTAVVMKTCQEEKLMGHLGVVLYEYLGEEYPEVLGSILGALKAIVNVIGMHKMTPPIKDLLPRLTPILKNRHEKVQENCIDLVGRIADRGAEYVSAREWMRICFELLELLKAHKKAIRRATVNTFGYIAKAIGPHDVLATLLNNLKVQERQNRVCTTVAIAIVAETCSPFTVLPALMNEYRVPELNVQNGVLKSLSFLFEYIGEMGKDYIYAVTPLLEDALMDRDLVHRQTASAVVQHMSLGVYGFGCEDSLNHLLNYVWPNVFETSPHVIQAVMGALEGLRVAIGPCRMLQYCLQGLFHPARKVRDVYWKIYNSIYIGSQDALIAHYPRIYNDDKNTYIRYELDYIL
T1 sequence (Q9BWJ5 whole entry, further chain, the tested form may be a part): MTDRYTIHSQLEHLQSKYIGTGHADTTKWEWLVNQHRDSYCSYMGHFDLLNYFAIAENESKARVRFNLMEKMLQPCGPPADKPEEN
Description: as §1
Batch immobilization of the anti-Flag antibody (Sigma) to the anti-mouse PVT SPA scintillation beads (PerkinElmer) was prepared as follows. For every 1.5 mg of beads, 10 µg of antibody was prepared in 150 µL of PBS. The antibody–bead mixture was incubated for 30 min at room temperature and centrifuged at 18,000g for 5 min. One-hundred-fifty microliters of PBS was used to resuspend every 1.5 mg of antibody–bead mixture. The aforementioned mini-SF3b complex was tested for ^3H-labeled pladienolide probe binding ([Kotake et al. 2007]). One-hundred microliters of binding reactions was prepared with […] of bead slurry and 0 or 50 nM protein in buffer (20 mM HEPES at pH 8, 200 mM KCl, 5% glycerol). The mixture was incubated for 30 min, and varying concentrations of ^3H-labeled pladienolide probe were added. The mixture was incubated for 30 min, and luminescence signals were read using a MicroBeta2 plate counter (PerkinElmer). Compound competition studies were performed with the wild-type mini-SF3b complex. One-hundred microliters of binding reactions was prepared with 50 µL of bead slurry, 25 nM protein in buffer, and compounds at varying concentrations. After 30 min of preincubation, 10 nM ^3H-labeled pladienolide probe was added. The reactions were incubated for 30 min, and luminescence signals were read.
The Scintillation proximity assay (SPA) competition assay with 10 nM 3H tracer for different Pladienolide analogs binding to the 4-protein SF3b complex. Error bars represent STD for 2 or more measurements. Red = E7107, Orange = PladD, Purple = PladF, Green = compound 2, red = compound 3, gray = compound 4, black = compound 5, blue = compound 6. […]

[3] = system: HCT116-PHF5A^WT; test: CellTiter-Glo viability assay, HCT116-PHF5A^WT; format: cell-based, human; conditions: for GI50: Homo sapiens, 72 h, read-out: HCT116-PHF5A^WT GI50
Description: as §1, §2

[4] = system: splicing of Ad2.2 pre-mRNA substrate; test: In vitro splicing (IVS) assay, Ad2.2 substrate, HeLa S3 nuclear extracts, RT-qPCR; format: biochemical, human; conditions: for IC50: Ad2.2 (weak) substrate; for inhibition of strong and weak IVS substrates: Ad2.1 and Ad2.2 substrates compared
Description: (§3) A substrate competitive mechanism of action (MOA) would predict that weaker pre-mRNA substrates would be easier to inhibit than stronger substrates. To date, it has not been possible to evaluate substrate competition using traditional steady-state conditions because splicing reactions are thought to be single-turnover events in vitro, and therefore it is not possible to measure a KM for the pre-mRNA. […] Specifically, we engineered the strong in vitro splicing substrate Ad2.1 by enhancing the U2 snRNP base-pairing around the BPA found in the Ad2 substrate. We then engineered a weaker substrate, Ad2.2, by adding a decoy BPS lacking an extrahelical adenosine (Ad2.2) (Fig. 5A; Supplemental Vector NTI files; [Corrionero et al. 2011]). […] We then evaluated E7107 and several chemical probes to better understand their mechanism.
(§4) Figure 5. […] (A) Base-pairing logic for IVS substrates. (BPRS) Branch point recognition sequence in U2 snRNA; (BPS) the BPS in the pre-mRNA. The Ad2 gene BPS sequence (UACUUAU) was modified (UACUAAU) to strengthen the U2 base-pairing interactions flanking the BPA, leading to the Ad2.1 substrate (BPA in red). The Ad2.2 sequence has the same BPS as Ad2 but also contains a 5′ decoy BPS sequence (lacking an extrahelical adenine) that can base-pair with the BPRS. The decoy BPS and suboptimal BPS overlap, which gives U2 at least two possibilities for possible base pairing, as indicated. […] (B) RT-qPCR time-course data showing product formation over time. […] (C) Representative IC50 curves for compound 6 using the two different substrates (Ad2.1 and Ad2.2).
(§5) The Ad2-derived ([Pellizzoni et al. 1998]) sequence was cloned into the pGEM-3Z vector (Promega) using 5′ EcoRI and 3′ XbaI restriction sites. The Ad2 variant (Ad2.2) ([Seiler et al. 2018]) was cloned into pcDNA3.1(+) vector (Promega) using the same restriction sites. The plasmids were linearized using XbaI and used as DNA templates in the in vitro transcription reactions. The FtzΔi intron-less plasmid ([Luo and Reed 1999]) was linearized using EcoRI. All RNAs were in vitro transcribed and then purified using MegaScript T7 and MegaClear kits, respectively (Invitrogen). For splicing reactions used with the Ad2.2 substrate, […] reactions were prepared using 8 µg of nuclear extracts prepared from HeLa S3, a saturating excess of 2 ng of pre-mRNA substrate, 0.2 ng of FTZΔi, and varying concentrations of compounds or DMSO.

[5] = system: splicing of Ad2.1 pre-mRNA substrate; test: In vitro splicing (IVS) assay, Ad2.1 substrate, HeLa S3 nuclear extracts, RT-qPCR; format: biochemical, human; conditions: Ad2.1 (strong) substrate
Description: as §3, §4, §5

[6] = system: HCT116 cell lines overexpressing PHF5A WT and mutants; test: Viability curves in HCT116 cell lines overexpressing PHF5A WT and mutants; format: cell-based, human
Description: Parental HCT116 cells were obtained from American Type Culture Collection and cultured in RPMI 1640 medium supplemented with 10% fetal bovine serum. […] Parental HCT116 cells were infected with virus and selected with blasticidin S at 10 µg mL^−1 for 1 wk. Engineered cell lines were subsequently maintained in the absence of antibiotic. Transgene expression was confirmed by Western blot analysis (Supplemental Fig. S4). For Western blot analysis, α-PHF5A rabbit polyclonal antibody (Protein Tech, 15554-1-AP) was used at 1:1000 dilution in LI-COR buffer, and anti-rabbit secondary antibody (LI-COR) was used at 1:5000 dilution. The Western blot was imaged using an Odyssey V3.0 imager (LI-COR). For CellTiter-Glo analysis of the wild-type and PHF5A^R38C cell lines, 500 cells were seeded in each well of a 384-well plate 1 d before compound addition. Dose response was measured in 11-point serial dilutions with a top dose of 10 µM. The percentage of DMSO was controlled throughout, and a DMSO-only control was included. Seventy-two hours after dosing, CellTiter-Glo reagent was added, incubated, and assayed on an EnVision multilabel reader (PerkinElmer). Luminescence values from each treatment were normalized to the average value of the respective DMSO control. The dose response curve plots were generated in GraphPad Prism, and GI50 values were calculated from nonlinear regression analysis. […]

[7] = competition with 10 nM 3H-labeled pladienolide probe, 25 nM protein, read-out: SPA IC50

Row | Molecule | PHF5A^R38C sensitization phenotype (words) ([1]; R38C vs wild type) | IC50 [2, 7] [nM] | GI50 ([3]; CellTiter-Glo) [nM] | GI50 ([1]; CellTiter-Glo) [nM] | IC50 [4] | IC50 [5] | also measured
1 | CO[C@]1(C)C[C@@]2(CO2)[C@H](O)[C@@H](/C=C/C(C)=C/C[C@@H]2O[C@H](C)[C@H](NC(=O)/C=C\[C@H](C)OC(C)=O)C[C@@H]2C)O1 [spliceostatin] | did not exhibit this sensitization phenotype |  |  |  |  |  | PHF5A^R38C sensitization phenotype (words) ([1]; R38C vs wild type, listed as Spliceostatin): lie near the line of unity
2 | CO[C@H]([C@@H](C)[C@H]1O[C@]1(C)C[C@H](C)/C=C/C=C(\C)[C@H]1O[C@@H](CC(=O)O)CC[C@@H]1C)[C@@H](C)O [herboxidiene] | not and did not exhibit this sensitization phenotype and lie near the line of unity |  |  |  |  |  | 
3 | pladienolide B [PladB] | did not observe this trend |  |  |  |  |  | 
4 | CCC(O)C(C)C1OC1CC(C)(O)C=CC=C(C)C1OC(=O)CC(O)CCC(C)(O)C(OC(=O)N2CC[N+](Cc3ccccc3)(C3CCCCCC3)CC2)C=CC1C (centres unmarked) [Compound 2] |  | 236 |  |  |  |  | GI50 [3]: > 400 nM; GI50 [1]: 259 nM
5 | C/C(=C\C(=O)O)[C@H]1OC(=O)C[C@H](O)CC[C@@](C)(O)[C@@H](OC(=O)N2CCN(C3CCCCCC3)CC2)/C=C/[C@@H]1C [Compound 4] |  | > 4000 | > 400 | > 400 | > 25000 nM | > 25000 nM | activity after truncating the diene tail [2]: completely eliminates activity
6 | CCC(O)C(C)C1OC1CC(C)(O)C=CC=C(C)C1OC(=O)CC(O)CCC(C)(O)C(O)C=CC1C (centres unmarked) [Plad F] |  | 1500 | > 400 | > 400 | 171 nM | > 25000 nM | loss of potency relative to E7107 in the SPA ([2]; relative to E7107): 20 fold; loss of potency relative to E7107 in viability assays [3]: > 200 fold; inhibition of strong and weak IVS substrates [4]: inhibit only the weak substrate
7 | CC(C)C[C@H](NC(=O)[C@H](Cc1ccccc1)NC(=O)c1cnccn1)B(O)O [bortezomib] | lie near the line of unity |  |  |  |  |  | killing of cell lines irrespective of PHF5A mutation status [6]: kills all of the cell lines at the same concentration
8 | CCC(O)C(C)C1OC1CC(C)(O)C=CC=C(C)C1OC(=O)CC(O)CCC(C)(O)C(OC(C)=O)C=CC1C (centres unmarked) [Plad D] |  |  |  |  |  |  | IC50 [2]: 97 nM; activity in the SPA binding assay [2]: nearly equipotent to E7107; GI50 [3]: 26 nM; PHF5A^R38C sensitization phenotype (words) [1]: did not observe this trend; GI50 [1]: 18 nM
9 | C/C(=C\CO)[C@H]1OC(=O)C[C@H](O)CC[C@@](C)(O)[C@@H](OC(=O)N2CCN(C3CCCCCC3)CC2)/C=C/[C@@H]1C [Compound 5] |  | > 4000 | > 400 | > 400 | 16000 nM | > 25000 nM | activity after truncating the diene tail [2]: completely eliminates activity
10 | CCC(O)C(C)C1OC1CC(C)(O)C=CC=C(C)C1OC(=O)CC(O)CCC(C)(O)C(OC(=O)N2CC[N+](C)(C3CCCCCC3)CC2)C=CC1C (centres unmarked) [Compound 1] |  |  | > 400 | > 400 | 184 nM and 177 nM | 177 nM and 184 nM | inhibition of strong and weak IVS substrates [4]: inhibit both the strong and weak substrates equally well
11 | CCC(O)C(C)C1OC1CC(C)(O)C=CC=C(C)C1OC(=O)CC(OC(=O)C2CC2)CCC(C)(O)C(OC(=O)N2CCN(C3CCCCCC3)CC2)C=CC1C (centres unmarked) [Compound 3] |  | > 4000 | > 400 | 243 | 966 nM | > 25000 nM | activity in the SPA binding assay ([2]; relative to E7107): total loss of activity
12 | C/C(=C\C=C\[C@@H](C)c1ccccn1)[C@H]1OC(=O)C[C@H](O)CC[C@@](C)(O)[C@@H](OC(=O)N2CCN(C3CCCCCC3)CC2)/C=C/[C@@H]1C [Compound 6] |  | 376 | 34 | 11 | 23 nM | > 25000 nM | loss of potency relative to E7107 in the SPA ([2]; relative to E7107): sixfold; loss of potency relative to E7107 in viability assays [3]: ~10 fold; inhibition of strong and weak IVS substrates [4]: inhibit only the weak substrate
